These results are taken from publication PMC12040169 (PLOS Biology, 2025).

The series is described as follows: in vitro. To be noted: human, hela cells, % viability.

In general, viability refers to a read-out of living cells in per cent, often relative to untreated cells. In the case of `S=C(NC1=NCCS1)Nc1ccccc1` [CBK016591], the viability at 28.5 h, 10 µM was found to be 95.2%.
On to `COc1ccc(-c2cnc(NCC3CC3)c(C(=O)NCc3ccccc3SC)c2)cc1` [CBK076437], for which the viability at 28.5 h, 10 µM was determined as 110%.
Same read-out and setting: as for `O=C(CSCc1ccc(Cl)cc1Cl)Nc1ccc(O)cc1C(=O)O` [CBK275322], the figure is 95%.
On to `CCN(CCO)c1ccc(Nc2cc(-c3cccc([N+](=O)[O-])c3)ncn2)cc1` [CBK091002], for which the viability at 28.5 h, 10 µM is 92.2%.
Same read-out and setting: to `COC1CCN(C2CCc3c(Cl)cc(Cl)cc32)CC1` (stereo not shown) [CBK304883] belongs 90.6%; to `COc1ccccc1NC(=O)c1ccc(OCC(=O)O)cc1` [CBK265849], 100%.
Still for that read-out and setting: as for `Cc1nn(C)c(C)c1NC(=O)CN1CCN(c2cccc(Cl)c2)CC1` [CBK306052], the figure is 81.1%; as for `COc1nccnc1OC1CCN(Cc2ccc([N+](=O)[O-])cc2)CC1` [CBK084245], 105%; as for `CC(C)NC(=O)c1sc2ccccc2c1C1CCN(C(=O)CCc2ccccc2)C1` (stereo not shown) [CBK285874], 99.2%.
The same measure, in the same setting: as for `COc1cc(C(O)CNC(=O)c2cnc(-c3ccc(F)cc3)c(-c3cccc(N)c3)c2)ccc1O` (stereo not shown) [CBK038032], the figure is 98.8%.
Consider `O=S1(=O)NC=Nc2ccccc21` [CBK028171], for which the viability at 28.5 h, 10 µM stood at 112%.
On the same count and under the same terms, to `Cc1ccc(C(=O)O/N=C(\N)c2ccccn2)cc1` [CBK263265] belongs 90.9%; to `CC(C)(C)OC(=O)N1CCN(c2ccc(N)c3ccccc23)CC1` [CBK003162], 88.3%.
Same read-out and setting: as for `Cc1cc(C)c2c3c(sc2n1)C(=O)N(C)CC(=O)N3` [CBK287959], the figure is 83.8%.
Still for that read-out and setting: to `CN1C(=O)COc2ccccc2C/C=C/C[C@@H]2[C@H]1CCCN2C(=O)CNS(C)(=O)=O` [CBK292079] belongs 87.7%; to `COc1ccc(C(=O)Nc2ccc(N3CCOCC3)c(Cl)c2)cc1[N+](=O)[O-]` [CBK263894], 100%; to `CCCCC(O)(Cc1onc(-c2ccccc2)c1C(=O)N(C)C)c1ccc(CN2CCCC2)cc1` (stereo not shown) [CBK034415T], 113%.
As to `O=S(=O)(Nc1ccc(-c2csnn2)cc1)c1ccc(F)cc1` [CBK050482], the viability at 28.5 h, 10 µM came out at 92.1%.
Still for that read-out and setting: as for `O=C(NC(c1ccc(F)cc1)c1cnccn1)C1CCN(S(=O)(=O)c2cccc(Cl)c2)CC1` (stereo not shown) [CBK060013], the figure is 85.1%; as for `O=C(NC1CCCN(c2ncccn2)C1)c1ccc(-c2ccc(F)cc2)s1` (stereo not shown) [CBK298337], 88.5%.
Still for that read-out and setting: as for `O=C(C1CC1)N1CCCC(c2nc(-c3cccs3)no2)C1` (stereo not shown) [CBK281944], the figure is 97.1%; as for `CC(=O)Nc1ccc(C(=O)N2CCCC2c2cccc(Cc3ccc(Cl)cc3)n2)cc1` (stereo not shown) [CBK286144], 110%.
For `O=C(O)c1cccc(N2N=C(c3ccccc3)CC2=O)c1` [CBK286966], the viability at 28.5 h, 10 µM stood at 96.5%.
Regarding `O=C(c1ccccc1)c1ccc2[nH]nnc2c1` [CBK091608], the viability at 28.5 h, 10 µM came to 94.2%.
Take `O=C(O)Cn1cc(C(=O)c2ccccc2F)c2ccccc21` [CBK287100]: the viability at 28.5 h, 10 µM (bulk resorufin, single well) stood at 92.7%.
Consider `Cn1cnc(S(=O)(=O)N(c2ccc(C(C)(C)C)cc2)C2CCNCC2)c1` [CBK165046T], for which the viability at 28.5 h, 10 µM was found to be 87.5%.
Take `OCCCN1CCCN(c2ccnc(OCCN3CCOCC3)n2)CC1` [CBK083808]: the viability at 28.5 h, 10 µM amounted to 104%.
On the same count and under the same terms, as for `CCCCC12CN3CC(C)(CN(C1)C31C(=O)Nc3ccc(Br)cc31)C2=O` (stereo not shown) [CBK267348], the figure is 96%.
On the same count and under the same terms, to `Cc1ccc(NC(=O)CSc2nnc3c4c5c(sc4nc(-n4nc(C)cc4C)n23)COC(C)(C)C5)cc1` [CBK268675] belongs 93.2%; to `Cn1ccc(C(=O)N2CCCC3(C/C=C/Cc4ccccc4OCC(=O)NC3)C2)cc1=O` (stereo not shown) [CBK292179], 107%; to `CCc1cc(CNC(=O)C(c2ccc(F)cc2)N(C)C)on1` (stereo not shown) [CBK281648], 88.4%.
The same measure, in the same setting: as for `NC(=O)C1CCN(C2CC(=O)N(c3cccc([N+](=O)[O-])c3)C2=O)CC1` (stereo not shown) [CBK265555], the figure is 105%; as for `C/C(=N\NC(=O)c1cccc(Cl)c1)c1ccccc1O` [CBK261665], 81.4%; as for `Cc1nc2ccc(C(=O)NC3=NN(c4ccccc4)C(=O)C3)cn2c1N(C)C(=O)CCc1ccccc1` [CBK146817], 89.8%.
On to `Cc1cc(Nc2ccc(I)cc2)n2ncnc2n1` [CBK027364], for which the viability at 28.5 h, 10 µM is 100%.
`Cc1nn2c(c1-c1ccno1)CCCCC2` [CBK007505]: the viability at 28.5 h, 10 µM was 97.6%.
`O=[N+]([O-])c1ccc(Sc2cccc(F)c2)nc1` [CBK002905]: the viability at 28.5 h, 10 µM came out at 103%.
Take `O=c1c2c3c(sc2n2c(S)nnc2n1Cc1ccccc1)CN(Cc1ccccc1)CC3` [CBK262973]: the viability at 28.5 h, 10 µM is 95%.
Still for that read-out and setting: to `CCOC(=O)CC(=O)N1CCC(c2onc3c2CC(C)CC3)CC1` (stereo not shown) [CBK285187] belongs 100%; to `c1ccc(CCNc2cc(-c3ccsc3)ncn2)nc1` [CBK036963], 93.9%; to `CC(NS(=O)(=O)N(C)C)c1ccccc1` (stereo not shown) [CBK263819], 96.6%.
Same read-out and setting: to `Fc1ccccc1CN1CCC(Oc2nccnc2OCc2cccnc2)CC1` [CBK083157T] belongs 91.8%.
For the compound `CCc1cc(C(=O)OC)c(NC(=O)C2C3C=CC(C3)C2C(=O)O)s1` (stereo not shown) [CBK270315], the viability at 28.5 h, 10 µM was found to be 94.9%.
Same read-out and setting: as for `CC1=NN(C(=O)C2CC2)C(=O)C1Cc1ccc(F)cc1` (stereo not shown) [CBK083561], the figure is 89.9%; as for `COc1ccc(-c2nnn(C3CCNCC3)n2)cc1OC` [CBK269870C], 85.3%; as for `CC(OC(=O)C1CCCCC1)c1nc2ccccc2[nH]1` (stereo not shown) [CBK111483], 107%.
Same read-out and setting: to `CCC1CCCCN1S(=O)(=O)c1cccc2c(S(=O)(=O)N3CCCCC3CC)cccc12` (stereo not shown) [CBK262073] belongs 92.8%; to `Cc1ccccc1-n1ncc2c(=O)n(CC(=O)N3CCCCC3)cnc21` [CBK287688], 108%.
Consider `O=[N+]([O-])c1ccccc1S(=O)(=O)NCCSCc1ccc(Cl)c(Cl)c1` [CBK058810], for which the viability at 28.5 h, 10 µM came to 104%.
Still for that read-out and setting: to `Nc1ncnc(NCCc2ccc(S(N)(=O)=O)cc2)c1[N+](=O)[O-]` [CBK267320] belongs 86.4%; to `COc1ccc(CN2Cc3cccc(C(=O)O)c3C2=O)cc1OC` [CBK291237], 83.5%; to `Cc1cccc(C)c1OCC(O)CNCCc1ccccc1` (stereo not shown) [CBK003072], 107%.
Still for that read-out and setting: as for `Cc1cc(C(=O)CSc2nnc(C3CC3)[nH]2)c(C)n1-c1cccc(C(F)(F)F)c1` [CBK295310], the figure is 80.6%; as for `CC(=O)c1ccc(-c2cc(N3CCN(C(=O)c4ccco4)CC3)ncn2)s1` [CBK036999], 105%; as for `CN(C)CCN1C(=O)C(O)=C(C(=O)c2cccs2)C1c1ccc([N+](=O)[O-])cc1` (stereo not shown) [CBK264584], 92.6%.
For the compound `CC(c1ccc(S(C)(=O)=O)cc1)N(C)C(=O)COc1ccc2ccccc2c1` (stereo not shown) [CBK296738], the viability at 28.5 h, 10 µM is 103%.
Still for that read-out and setting: to `O=C(NCc1ccccc1)c1cnccc1C(F)(F)F` [CBK200194] belongs 92.3%; to `CC1(C)CC(CC(=O)NN)(c2ccccc2)CCO1` (stereo not shown) [CBK261358C], 86.6%.
The same measure, in the same setting: to `COc1cc2c(c(OC)c1OC)CC(=O)NC21CCN(C(=O)CC(C)CC(=O)O)CC1` (stereo not shown) [CBK047265] belongs 94.8%; to `CC(C)(C)c1csc(N2CCSCC2)n1` [CBK021950], 119%; to `CNC(=O)CCCc1[nH]nc(O)c1Cc1c(Cl)cccc1Cl` [CBK085827], 89.4%.
On to `CCCC/C=C/c1nccnc1NCc1ccc(C(F)(F)F)cc1` [CBK038077], for which the viability at 28.5 h, 10 µM is 94.4%.
Same read-out and setting: to `O=c1[nH]c2c(cc1CNc1cccc(O)c1)c(-c1cccc(F)c1)nn2-c1ccccc1` [CBK286463] belongs 93%.
Same read-out and setting: to `COc1ccccc1-c1cccc(C2CCCN(C(=O)CCCc3ccccc3)C2)n1` (stereo not shown) [CBK286217] belongs 100%; to `COc1ccc(OC(=O)c2cc(S(=O)(=O)N3CCCCCC3)ccc2Cl)cc1` [CBK264562], 95.9%.
The same measure, in the same setting: to `O=C(O)CS(=O)(=O)c1ccc(Cl)cc1` [CBK262036G] belongs 114%; to `CCN(C(=O)c1n[nH]c2c1CCC2)C1CCN(C)CC1` [CBK281870], 102%.
Take `Cn1cc(CNC(=O)Nc2cc(C(=O)N3CCOCC3)ccc2Cl)cn1` [CBK307080]: the viability at 28.5 h, 10 µM came to 83.4%.
On the same count and under the same terms, as for `Cc1cccnc1NC(=O)C1CCCN1S(=O)(=O)c1ccc(Cl)cc1` (stereo not shown) [CBK269914], the figure is 83.2%.
Same read-out and setting: as for `Cc1cc(C(=O)CSc2nnc(N3CCCC3)n2C2CC2)c(C)n1C` [CBK306051], the figure is 65.1%.
Still for that read-out and setting: as for `Cc1cccc(-c2ncc(NC(=O)Cc3ccc(OC(F)(F)F)cc3)nc2-c2cccnc2)c1` [CBK037030], the figure is 89.2%.
As for `O=C(NCCO)c1cccc(-c2cncc(N3CCN(Cc4ccccn4)CC3)n2)c1` [CBK065784], the viability at 28.5 h, 10 µM was 90.1%.
The same measure, in the same setting: as for `CN1CCC(N2CC[C@@H]3[C@H]2C(=O)NC[C@H](CCC(=O)NCc2ccc(F)cc2)N3C)CC1` [CBK289022], the figure is 90.6%; as for `COc1cccc2cc(C(=O)NCc3cccs3)oc12` [CBK149799], 67.9%.
`O=C1NC(=O)C(CC(=O)N2CCC3(CCCNC3)C2)N1` (stereo not shown) [CBK153232C]: the viability at 28.5 h, 10 µM was found to be 79.2%.
Still for that read-out and setting: to `COc1ccc(CNC(=O)NC(=O)C2CCN(C(C)=O)CC2)c(OC)c1` [CBK034839] belongs 96.9%; to `COc1ccc(CN2CCN(S(=O)(=O)c3ccc(Cl)cc3)CC2)cc1OC` [CBK264204G], 104%.
Still for that read-out and setting: to `N#Cc1cccc(S(=O)(=O)N2CCCCC2CO)c1` (stereo not shown) [CBK051524] belongs 100%; to `C=CCOc1ccc(CNCCN2CCOCC2)cc1` [CBK278215C], 94.3%.
